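Cells were grown in 96-well plates and exposed to each compound for 48 hours at five concentrations; endpoints were interpolated linearly between bracketing concentrations, or set to the highest concentration if not reached. GI50 marks 50% less growth.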 Calls of active or inactive are those of the source. No stated cut-off is given here; in the data, active = GI50 up to about 1.1 µM and inactive = higher.
Assays:
Experiment in all cases: DTP human tumour cell line panel, 48 h
786-0 = system: 786-0
A498 = system: A498
A549 = system: A549
ACHN = system: ACHN
BT-549 = system: BT-549
CAKI-1 = system: CAKI-1
CCRF-CEM = system: CCRF-CEM
COLO 205 = system: COLO 205
DU-145 = system: DU-145
EKVX = system: EKVX
HCC 2998 = system: HCC 2998
HCT-116 = system: HCT-116
HCT-15 = system: HCT-15
HL-60 = system: HL-60
HOP-62 = system: HOP-62
HOP-92 = system: HOP-92
HT-29 = system: HT-29
Hs-578T = system: Hs-578T
IGROV-1 = system: IGROV-1
K562 = system: K562
KM12 = system: KM12
LOX IMVI = system: LOX IMVI
M14 = system: M14
MCF7 = system: MCF7
MDA-MB-231 = system: MDA-MB-231
MDA-MB-435 = system: MDA-MB-435
MDA-N = system: MDA-N
MOLT-4 = system: MOLT-4
Malme-3M = system: Malme-3M
NCI-H226 = system: NCI-H226
NCI-H23 = system: NCI-H23
NCI-H460 = system: NCI-H460
NCI-H522 = system: NCI-H522
NCI/ADR-RES = system: NCI/ADR-RES
OVCAR-3 = system: OVCAR-3
OVCAR-4 = system: OVCAR-4
OVCAR-5 = system: OVCAR-5
OVCAR-8 = system: OVCAR-8
PC-3 = system: PC-3
RPMI-8226 = system: RPMI-8226
RXF 393 = system: RXF 393
SF-268 = system: SF-268
SF-295 = system: SF-295
SF-539 = system: SF-539
SK-MEL-28 = system: SK-MEL-28
SK-MEL-2 = system: SK-MEL-2
SK-MEL-5 = system: SK-MEL-5
SK-OV-3 = system: SK-OV-3
SN12C = system: SN12C
SNB-19 = system: SNB-19
SNB-75 = system: SNB-75
SR = system: SR
SW-620 = system: SW-620
T47D = system: T47D
TK-10 = system: TK-10
U-251 = system: U-251
UACC-257 = system: UACC-257
UACC-62 = system: UACC-62
UO-31 = system: UO-31

Cc1cc(S(=O)(=O)Nc2nc(Nc3ccc(Cl)cc3)n[nH]2)c(S)cc1Cl
GI50 (786-0): > 100 µM (inactive) | GI50 (A498): > 100 µM (inactive) | GI50 (A549): > 100 µM (inactive) | GI50 (ACHN): 37.9 µM (inactive) | GI50 (BT-549): > 100 µM (inactive) | GI50 (CAKI-1): 36 µM (inactive) | GI50 (CCRF-CEM): > 100 µM (inactive) | GI50 (COLO 205): 79.3 µM (inactive) | GI50 (DU-145): > 100 µM (inactive) | GI50 (EKVX): > 100 µM (inactive) | GI50 (HCC 2998): > 100 µM (inactive) | GI50 (HCT-116): > 100 µM (inactive) | GI50 (HCT-15): 4.53 µM | GI50 (HL-60): > 100 µM (inactive) | GI50 (HOP-62): 52.5 µM (inactive) | GI50 (HOP-92): > 100 µM (inactive) | GI50 (HT-29): 81.1 µM (inactive) | GI50 (Hs-578T): 86.5 µM (inactive) | GI50 (IGROV-1): 70.5 µM (inactive) | GI50 (K562): > 100 µM (inactive) | GI50 (KM12): 31.6 µM (inactive) | GI50 (LOX IMVI): 75.7 µM (inactive) | GI50 (M14): 59.6 µM (inactive) | GI50 (MCF7): > 100 µM (inactive) | GI50 (MDA-MB-231): > 100 µM (inactive) | GI50 (MDA-MB-435): > 100 µM (inactive) | GI50 (MDA-N): 55.2 µM (inactive) | GI50 (MOLT-4): > 100 µM (inactive) | GI50 (Malme-3M): > 100 µM (inactive) | GI50 (NCI-H226): > 100 µM (inactive) | GI50 (NCI-H23): 82.8 µM (inactive) | GI50 (NCI-H460): 86.9 µM (inactive) | GI50 (NCI-H522): 70.5 µM (inactive) | GI50 (NCI/ADR-RES): > 100 µM (inactive) | GI50 (OVCAR-3): > 100 µM (inactive) | GI50 (OVCAR-4): > 100 µM (inactive) | GI50 (OVCAR-5): > 100 µM (inactive) | GI50 (OVCAR-8): > 100 µM (inactive) | GI50 (PC-3): > 100 µM (inactive) | GI50 (RPMI-8226): > 100 µM (inactive) | GI50 (RXF 393): > 100 µM (inactive) | GI50 (SF-268): 75.5 µM (inactive) | GI50 (SF-295): 91.2 µM (inactive) | GI50 (SF-539): > 100 µM (inactive) | GI50 (SK-MEL-28): > 100 µM (inactive) | GI50 (SK-MEL-2): > 100 µM (inactive) | GI50 (SK-MEL-5): > 100 µM (inactive) | GI50 (SK-OV-3): > 100 µM (inactive) | GI50 (SN12C): > 100 µM (inactive) | GI50 (SNB-19): 80.9 µM (inactive) | GI50 (SNB-75): > 100 µM (inactive) | GI50 (SR): > 100 µM (inactive) | GI50 (SW-620): > 100 µM (inactive) | GI50 (T47D): > 100 µM (inactive) | GI50 (TK-10): > 100 µM (inactive) | GI50 (U-251): 27.9 µM (inactive) | GI50 (UACC-257): > 100 µM (inactive) | GI50 (UACC-62): 18.9 µM (inactive) | GI50 (UO-31): 79.1 µM (inactive)

O=C(NNCC(F)(F)F)c1ccncc1
GI50 (786-0): > 100 µM (inactive) | GI50 (A498): > 100 µM (inactive) | GI50 (A549): > 100 µM (inactive) | GI50 (ACHN): > 100 µM (inactive) | GI50 (BT-549): > 100 µM (inactive) | GI50 (CAKI-1): > 100 µM (inactive) | GI50 (CCRF-CEM): > 100 µM (inactive) | GI50 (COLO 205): > 100 µM (inactive) | GI50 (DU-145): > 100 µM (inactive) | GI50 (EKVX): > 100 µM (inactive) | GI50 (HCC 2998): > 100 µM (inactive) | GI50 (HCT-116): > 100 µM (inactive) | GI50 (HCT-15): > 100 µM | GI50 (HL-60): > 100 µM (inactive) | GI50 (HOP-62): > 100 µM (inactive) | GI50 (HOP-92): > 100 µM (inactive) | GI50 (HT-29): > 100 µM (inactive) | GI50 (Hs-578T): > 100 µM (inactive) | GI50 (IGROV-1): > 100 µM (inactive) | GI50 (K562): > 100 µM (inactive) | GI50 (KM12): > 100 µM (inactive) | GI50 (LOX IMVI): > 100 µM (inactive) | GI50 (M14): > 100 µM (inactive) | GI50 (MCF7): > 100 µM (inactive) | GI50 (MDA-MB-231): > 100 µM (inactive) | GI50 (MDA-MB-435): > 100 µM (inactive) | GI50 (MDA-N): > 100 µM (inactive) | GI50 (MOLT-4): > 100 µM (inactive) | GI50 (Malme-3M): > 100 µM (inactive) | GI50 (NCI-H226): > 100 µM (inactive) | GI50 (NCI-H23): > 100 µM (inactive) | GI50 (NCI-H460): > 100 µM (inactive) | GI50 (NCI-H522): > 100 µM (inactive) | GI50 (NCI/ADR-RES): > 100 µM (inactive) | GI50 (OVCAR-3): > 100 µM (inactive) | GI50 (OVCAR-4): > 100 µM (inactive) | GI50 (OVCAR-5): > 100 µM (inactive) | GI50 (OVCAR-8): > 100 µM (inactive) | GI50 (PC-3): > 100 µM (inactive) | GI50 (RPMI-8226): > 100 µM (inactive) | GI50 (RXF 393): > 100 µM (inactive) | GI50 (SF-268): > 100 µM (inactive) | GI50 (SF-295): > 100 µM (inactive) | GI50 (SF-539): > 100 µM (inactive) | GI50 (SK-MEL-28): > 100 µM (inactive) | GI50 (SK-MEL-2): > 100 µM (inactive) | GI50 (SK-MEL-5): > 100 µM (inactive) | GI50 (SK-OV-3): > 100 µM (inactive) | GI50 (SN12C): > 100 µM (inactive) | GI50 (SNB-19): > 100 µM (inactive) | GI50 (SNB-75): > 100 µM (inactive) | GI50 (SR): > 100 µM (inactive) | GI50 (SW-620): > 100 µM (inactive) | GI50 (T47D): > 100 µM (inactive) | GI50 (TK-10): > 100 µM (inactive) | GI50 (U-251): > 100 µM (inactive) | GI50 (UACC-257): > 100 µM (inactive) | GI50 (UACC-62): > 100 µM (inactive) | GI50 (UO-31): > 100 µM (inactive)

Source: ChEMBL document CHEMBL1201862, “PubChem BioAssay data set” (2004)
